The record followed here is patent US20090291945A1, “CYSTEINE PROTEASE INHIBITORS” (Teijin Pharma Limited, priority 2008, published 2009).

Some results are limits rather than exact numbers.

For the experiment, the target named is T1, cathepsin K (Homo sapiens, UniProt P43235).
T1 construct: the active enzyme was obtained as the enzyme fraction by using detergent containing lysis buffer; made in house; host or cells: HEK293T (GenHunter Corporation), transient expression; detergent lysate used as enzyme fraction
T1 sequence (P43235 115-329): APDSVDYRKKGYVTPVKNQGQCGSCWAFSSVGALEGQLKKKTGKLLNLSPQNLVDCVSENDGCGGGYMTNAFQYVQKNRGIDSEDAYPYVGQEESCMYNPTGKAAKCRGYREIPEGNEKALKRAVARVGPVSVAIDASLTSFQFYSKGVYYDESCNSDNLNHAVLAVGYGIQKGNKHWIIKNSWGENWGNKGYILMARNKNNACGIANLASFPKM
The experiment is described as follows: Cathepsin K inhibitory activity (fluorescent substrate Z-Leu-Arg-MCA). It is filed as biochemical. Conditions: enzyme expressed in HEK293T; 15 min preincubation, 30 min reaction at room temperature, pH 5.5; read-out: Activity Intensity (cathepsin K inhibitory activity, pIC50 class) (converted). Here is the method: Cathepsin K inhibitory activities of the compounds synthesized according to the methods of the above examples were measured.
Cathepsin K used for evaluation of inhibitory activity was transiently expressed in an animal cell HEK293T (made by GenHunter Corporation) and the active enzyme was obtained as the enzyme fraction by using detergent containing lysis buffer.
The enzyme solution A was prepared at 2.1 times final concentration by diluting the enzyme fraction with assay buffer (50 mM sodium acetate, 50 mM sodium chloride, 2 mM DTT, pH 5.5). The test compound solutions B were prepared at 50 times final target concentrations by dimethylsulfoxide (DMSO). As a substrate solution C, a solution of a fluorescent substrate, benzyloxycarbonyl-L-leucyl-L-arginyl-4-methyl-coumaryl-7-amide (Z-Leu-Arg-MCA (Peptide Institute Inc.), was prepared at 10 μM by an assay buffer.
To the enzyme solution A (38.4 μL) were added the test compound solutions B (1.6 μL) and mixed individually. The mixtures were incubated at room temperature for 15 minutes. To the incubated solutions were added the substrate solution C (40 μL) and the mixtures were reacted at room temperature for 30 minutes respectively. The fluorescence intensities of the enzyme reaction solutions were measured at excitation wavelength of 355 nm and measurement wavelength of 460 nm and the enzyme activities were calculated from these fluorescence intensities caused by 7-amino-4-methylcoumarine released. The enzyme activity with using DMSO instead of the test compound solution B was taken as 100% and the inhibitory rates at each concentration of the test compound were calculated. The […] response curve was fitted to the plots. The 50% inhibitory concentration against cathepsin K was calculated from this curve.
Note that the symbols (+, ++, and +++) in this table represent the inhibitory activity values as below. Here, pIC50 is the value representing a negative logarithm of IC50, (−log10(IC50)). IC50 is a 50% inhibitory concentration.

Take `CC(C)C[C@H](N[C@@H](c1ccccc1)C(F)(F)F)C(=O)N[C@@H](CCC#N)CNc1ccc(N2CCOCC2)cc1` [Compound 92]: the IC50 was at most 3.16 nM.

With `CC[C@@H](CNc1ccc(OCC[S+](C)[O-])cc1OC)NC(=O)[C@H](CC(C)(C)F)N[C@@H](c1ccc(Br)cc1)C(F)(F)F` (stereo partly drawn) [Compound 138-1, (2S)-2-{[(1S)-1-(4-bromophenyl)-2,2,2-trifluoroethyl]amino}-N-{(1S)-1-[({2-methoxy-4-[2-(methylsulfinyl)ethoxy]phenyl}amino)methyl]propyl}-4-fluoro-4-methylpentanamide], the IC50 is at most 3.16 nM.

As for `CC[C@@H](CNc1ccc2c(c1)OCO2)NC(=O)[C@H](CC(C)C)N[C@@H](c1ccccc1)C(F)(F)F` [Compound 99], the IC50 is 31.6 to 10000 nM.

Take `CC[C@@H](CNc1ccc(N2CCCC2=O)cc1)NC(=O)[C@H](CC(C)C)N[C@@H](c1ccccc1)C(F)(F)F` [Compound 53]: the IC50 was 3.16 to 31.6 nM.

Turning to `CCOC(=O)C1CCN(c2ccc(NC[C@H](CC)NC(=O)[C@H](CC(C)C)N[C@@H](c3ccccc3)C(F)(F)F)cc2)CC1` [Compound 49], the IC50 was at most 3.16 nM.

With `CC(C)(F)C[C@H](N[C@@H](c1ccccc1)C(F)(F)F)C(=O)N[C@@H](CCC#N)CNc1ccc(N2CCOCC2)cc1` [Compound 94], the IC50 is at most 3.16 nM.

Consider `COc1ccc(NC[C@H](C)NC(=O)C2(NC(c3ccccc3)C(F)(F)F)CCCCC2)c(OC)c1` (some centres unmarked) [Compound 110], for which the IC50 is 31.6 to 10000 nM.

In the case of `CC[C@@H](CNc1ccc(OCCCC(=O)OC)cc1OC)NC(=O)[C@H](CC(C)C)N[C@@H](c1ccccc1)C(F)(F)F` [Compound 85], the IC50 was at most 3.16 nM.

Consider `CC[C@@H](CNc1ccc(N2C[C@@H](C)O[C@@H](C)C2)cc1)NC(=O)[C@H](CC(C)C)N[C@@H](c1ccc(OC)nc1)C(F)(F)F` [Compound 52], for which the IC50 is at most 3.16 nM.

For `CC[C@@H](CNc1ccc(N2CCOCC2)cc1)NC(=O)[C@H](Cc1ccccc1)N[C@@H](c1ccccc1)C(F)(F)F` [Compound 58], the IC50 is 31.6 to 10000 nM.

In the case of `CC[C@@H](CNc1ccccc1N1CCOCC1)NC(=O)[C@H](CC(C)C)N[C@@H](c1ccccc1)C(F)(F)F` [Compound 88], the IC50 is 31.6 to 10000 nM.

On to `CC[C@@H](CNc1ccc(N2CCOCC2)cc1)NC(=O)[C@H](CC(C)C)N[C@@H](c1ccc(OCCOC)cc1)C(F)(F)F` [Compound 30], for which the IC50 was at most 3.16 nM.

As to `CC[C@@H](CNc1ccc(OCC(=O)N(C)C)cc1OC)NC(=O)[C@H](CC(C)(C)F)N[C@@H](c1ccccc1)C(F)(F)F` [Compound 134], the IC50 was at most 3.16 nM.

Take `CC[C@@H](CNc1ccc(N2CCSCC2)cc1OC)NC(=O)[C@H](CC(C)(C)F)N[C@@H](c1ccc(Br)cc1)C(F)(F)F` [Compound 17]: the IC50 is at most 3.16 nM.

With `COc1ccc(NC[C@H](C)NC(=O)[C@H](CC(C)C)N[C@@H](c2ccc(=O)[nH]c2)C(F)(F)F)c(OC)c1` [Compound 76], the IC50 is 3.16 to 31.6 nM.

On to `COc1ccc(NC[C@H](C)NC(=O)[C@H](CC(C)C)N[C@@H](c2ccc(OC)nc2)C(F)(F)F)c(OC)c1` [Compound 79], for which the IC50 was 3.16 to 31.6 nM.

Consider `CC(C)C[C@H](N[C@@H](c1ccccc1)C(F)(F)F)C(=O)N[C@@H](CN)CNc1ccc(N2CCOCC2)cc1` [Compound 128], for which the IC50 is 3.16 to 31.6 nM.

`CCOC(=O)C1CCN(c2ccc(NC[C@H](CC)NC(=O)[C@H](CC(C)(C)F)N[C@@H](c3ccccc3)C(F)(F)F)cc2)CC1` [Compound 55]: the IC50 is at most 3.16 nM.

Turning to `COc1ccc(NC[C@H](CO)NC(=O)[C@H](CC(C)(C)F)N[C@@H](c2ccc(-c3ccc(S(C)(=O)=O)cc3)cc2)C(F)(F)F)cc1` [Compound 3, N-((1R)-2-hydroxy-1-{[(4-methoxyphenyl)amino]methyl}ethyl)(2S)-2-[((1S)-2,2,2-trifluoro-1-{4-[4-(methylsulfonyl)phenyl]phenyl}ethyl)amino]-4-fluoro-4-methylpentanamide], the IC50 was 3.16 to 31.6 nM.

For the molecule `COc1ccc(NC[C@H](CCSC)NC(=O)[C@H](CC(C)C)N[C@@H](c2ccccc2)C(F)(F)F)c(OC)c1` [Compound 66], the IC50 was 3.16 to 31.6 nM.
